Tested on: P. aeruginosa IAM1095
Experiment: in vitro antimicrobial activity, two-fold agar-plate dilution method (MIC)
Assay type: cell-based
Details: Pseudomonas aeruginosa, heart infusion agar (HI-agar), 10^6 viable cells per ml, 37° C., 20 hours, read-out: minimal inhibitory concentration (MIC)
Description: in vitro Antimicrobial Activity was determined by the two-fold agar-plate dilution method as described below.
One loopful of an overnight culture of a test strain in Trypticase-soy broth (10^6 viable cells per ml) was streaked on heart infusion agar (HI-agar) containing graded concentrations of the test compound, and the minimal inhibitory concentration (MIC) was expressed in terms of μg/ml after incubation at 37° C. for 20 hours.

- MIC: 0.78 µg/mL
SMILES: C[C@@H](O)[C@H]1C(=O)N2C(C(=O)O)=C(S[C@@H]3CN[C@H](CC[n+]4ccn(C)c4)C3)[C@H](C)[C@H]12 [Example 4-4), (4R,5S,6S)-6-[(1R)-1-hydroxyethyl]-4-methyl-3-[(2R,4S)-2-{2-(3-methyl-1-imidazolio)ethyl}pyrrolidin-4-yl]thio-7-oxo-1-azabicyclo[3.2.0]hept-2-ene-2-carboxylic acid chloride]

— US5608056A, “Substituted 3-pyrrolidinylthio-carbapenems as antimicrobial agents” (Fujisawa Pharmaceutical Co., Ltd., priority 1992, dated 1997)
